{"source": "patent US7176313B2", "about": "“Anti acid-fast bacterial agent containing pyridonecarboxylic acids as active ingredient” (Daiichi Pharmaceutical Co., Ltd., priority 2000, dated 2007)", "key": {"reticulocytes (RC)": {"system": "reticulocytes (RC)", "experiment": "Peripheral blood micronucleus test", "format": "in vivo, Male Slc:ddY mice", "conditions": "mice, intravenous; for MNRC (%) mean ±S.E. 24 hours: 24 hours after administration; for MNRC (%) mean ±S.E. 48 hours: 48 hours after administration; for micronucleus induction: (untreated control: 0.12±0.08)", "description": "Peripheral Blood Micronucleus Test\nUsed animals and administration method are similar to those in the mouse acute toxicity test. Samples were prepared by collecting 5 μl each of blood sample from the tail vein at 24 and 48 hours after the administration, dropping the blood on a slide at which 0.1% acridine orange solution had been applied in advance, sealing the slide with a cover glass immediately, and allowing it to stand in a refrigerator for 24 hours."}, "[1]": {"experiment": "Mouse acute toxicity test", "format": "in vivo, Male Slc:ddY mice", "conditions": "intravenous; for survival of mice after administration / acute toxicity: text summary of Table 9; for Mortality (dead/ test) / acute toxicity: mice", "description": "Mouse Acute Toxicity Test\nMale Slc:ddY mice at age of 5-weeks were used as test animals. For dissolving the compounds, 0.1 mol/l NaOH (in saline) was used. Mice were administered intravenously at a rate of 0.1 ml/30 seconds at a dosing volume of 10 ml/kg."}, "M. intracellulare": {"system": "M. intracellulare", "experiment": "Antibacterial activity (MIC) against M. intracellulare", "format": "cell-based, Mycobacterium intracellulare", "description": "Antibacterial activity of the compounds of the invention was measured in accordance with the method described in the literature of Antimicrob. Agents and Chemother., 38, 2877 (1994), and the results are shown in Tables 3 to 8 in terms of MIC (μg/ml). In the tables, “OFLX” is an abbreviation of “OFLOXAIN”."}, "M. avium": {"system": "M. avium", "experiment": "Antibacterial activity (MIC) against M. avium", "format": "cell-based, Mycobacterium avium", "description": "Antibacterial activity of the compounds of the invention was measured in accordance with the method described in the literature of Antimicrob. […] In the tables, “OFLX” is an abbreviation of “OFLOXAIN”."}, "[2]": {"system": "Mycobacterium tuberculosis (RFP sensitive)", "experiment": "Antibacterial activity (MIC) against Mycobacterium tuberculosis (RFP sensitive)", "format": "cell-based"}}, "note": "Read-outs that look alike come from different tables or passages of the source.", "data": [{"smiles": "COc1c(N2CCNC3(CC3)C2)c(F)cc2c(=O)c(C(=O)O)cn([C@@H]3C[C@@H]3F)c12", "note": "[Compd. 22, 7-{4,7-Diazaspiro[2.5]octan-7-yl}-6-fluoro-1-[(1R,2S)-2-fluorocyclopropyl]-1,4-dihydro-8-methoxy-4-oxoquinoline-3-carboxylic acid]", "values": [{"measurement": "melting point", "value": "164 to 167 °C (dec.)"}]}, {"smiles": "COc1c(C2CNC3(CCC3)CN2)c(F)cc2c(=O)c(C(=O)O)cn([C@@H]3C[C@@H]3F)c12", "note": "(stereo partly drawn) [Compd. 23, 7-{5,8-Diazaspiro[3.5]nonan-7-yl}-6-fluoro-1-[(1R,2S)-2-fluorocyclopropyl]-1,4-dihydro-8-methoxy-4-oxoquinoline-3-carboxylic acid]", "values": [{"measurement": "melting point", "value": "138 to 140 °C (dec.)"}]}, {"smiles": "C[C@H]1COc2c(N3CCN[C@@H](c4ccccc4)C3)c(F)cc3c(=O)c(C(=O)O)cn1c23", "note": "[Compd. 27, 9-Fluoro-2,3-dihydro-3-(S)-methyl-7-oxo-10-[3-(S)-phenyl-1-piperazinyl]-7H-pyrido[1.2.3-de][1,4]benzoxazine-6-carboxylic acid]", "values": [{"measurement": "MNRC (%) mean ±S.E. 24 hours", "setting": "reticulocytes (RC); 100 mg/kg", "value": "0.20 ± 0.03", "unit": "%"}, {"measurement": "MNRC (%) mean ±S.E. 48 hours", "setting": "reticulocytes (RC); 100 mg/kg", "value": "0.18 ± 0.04", "unit": "%"}, {"measurement": "micronucleus induction", "setting": "reticulocytes (RC)", "value": "weak"}, {"measurement": "survival of mice after administration", "setting": "[1]", "value": "all mice were survived"}, {"measurement": "Mortality (dead/ test)", "setting": "[1]; 100 mg/kg", "value": "0/5"}, {"measurement": "acute toxicity", "setting": "[1]", "value": "relatively weak"}]}, {"smiles": "COc1c(N2C[C@@H](C)N[C@@H](C)C2)c(F)cc2c(=O)c(C(=O)O)cn([C@@H]3C[C@@H]3F)c12", "note": "[Compd. 16, 7-(3,5-cis-Dimethylpiperazin-1-yl)-6-fluoro-1-[2-(S)-fluoro-1-(R)-cyclopropyl]-1,4-dihydro-8-methoxy-4-oxoquinoline-3-carboxylic acid]", "values": [{"measurement": "MIC", "setting": "M. intracellulare; Mycobacterium intracellulare, M. intracellulare N-294, Table 4 (series 2), read-out: MIC", "value": 1, "unit": "µg/mL"}, {"measurement": "MIC", "setting": "M. intracellulare; Mycobacterium intracellulare, M. intracellulare N-313, Table 4 (series 2), read-out: MIC", "value": 0.12, "unit": "µg/mL"}, {"measurement": "MIC", "setting": "M. intracellulare; Mycobacterium intracellulare, M. intracellulare N-338, Table 4 (series 2), read-out: MIC", "value": 0.5, "unit": "µg/mL"}, {"measurement": "MIC", "setting": "M. intracellulare; Mycobacterium intracellulare, M. intracellulare N-345, Table 4 (series 2), read-out: MIC", "value": 0.5, "unit": "µg/mL"}, {"measurement": "MIC", "setting": "M. avium; Mycobacterium avium, M. avium N-357, Table 4 (series 2), read-out: MIC", "value": 0.5, "unit": "µg/mL"}, {"measurement": "MIC", "setting": "M. avium; Mycobacterium avium, M. avium N-444, Table 4 (series 2), read-out: MIC", "value": 1, "unit": "µg/mL"}, {"measurement": "MIC", "setting": "M. avium; Mycobacterium avium, M. avium N-458, Table 4 (series 2), read-out: MIC", "value": 0.5, "unit": "µg/mL"}, {"measurement": "MIC", "setting": "M. avium; Mycobacterium avium, M. avium N-472, Table 4 (series 2), read-out: MIC", "value": 4, "unit": "µg/mL"}, {"measurement": "MIC", "setting": "[2]; Mycobacterium tuberculosis, H37RV, M. tuberculosis H37Rv, Table 6 (series 2), read-out: MIC", "value": 0.12, "unit": "µg/mL"}, {"measurement": "MIC", "setting": "[2]; Mycobacterium tuberculosis, M. tuberculosis Kurono, Table 6 (series 2), read-out: MIC", "value": 0.12, "unit": "µg/mL"}, {"measurement": "MIC", "setting": "[2]; Mycobacterium tuberculosis, M. tuberculosis No. 40, Table 6 (series 2), read-out: MIC", "value": 0.12, "unit": "µg/mL"}, {"measurement": "MIC", "setting": "[2]; Mycobacterium tuberculosis, M. tuberculosis No. 41, Table 6 (series 2), read-out: MIC", "value": 0.03, "unit": "µg/mL"}, {"measurement": "MIC", "setting": "[2]; Mycobacterium tuberculosis, M. tuberculosis No. 43, Table 6 (series 2), read-out: MIC", "value": 1, "unit": "µg/mL"}, {"measurement": "MIC", "setting": "[2]; Mycobacterium tuberculosis, M. tuberculosis No. 68, Table 6 (series 2), read-out: MIC", "value": 0.12, "unit": "µg/mL"}, {"measurement": "MNRC (%) mean ±S.E. 24 hours", "setting": "reticulocytes (RC); 150 mg/kg", "value": "0.05 ± 0.03", "unit": "%"}, {"measurement": "MNRC (%) mean ±S.E. 48 hours", "setting": "reticulocytes (RC); 150 mg/kg", "value": "0.12 ± 0.02", "unit": "%"}, {"measurement": "micronucleus induction", "setting": "reticulocytes (RC)", "value": "weak"}, {"measurement": "survival of mice after administration", "setting": "[1]", "value": "all mice were survived"}, {"measurement": "Mortality (dead/ test)", "setting": "[1]; 150 mg/kg", "value": "0/5"}, {"measurement": "acute toxicity", "setting": "[1]", "value": "relatively weak"}]}, {"smiles": "CC1COc2c(N3CCN(C)CC3)c(F)cc3c(=O)c(C(=O)O)cn1c23", "note": "(stereo not shown) [OFLX, OFLOXAIN, reference compound]", "values": [{"measurement": "MIC", "setting": "M. intracellulare; M. intracellulare N-294, Table 3", "value": 12.5, "unit": "µg/mL"}, {"measurement": "MIC", "setting": "M. intracellulare; M. intracellulare N-294, Table 4 (series 2)", "value": 8.0, "unit": "µg/mL"}, {"measurement": "MIC", "setting": "M. intracellulare; M. intracellulare N-313, Table 3", "value": 6.25, "unit": "µg/mL"}, {"measurement": "MIC", "setting": "M. intracellulare; M. intracellulare N-313, Table 4 (series 2)", "value": 1.0, "unit": "µg/mL"}, {"measurement": "MIC", "setting": "M. intracellulare; M. intracellulare N-338, Table 3", "value": 25, "unit": "µg/mL"}, {"measurement": "MIC", "setting": "M. intracellulare; M. intracellulare N-338, Table 4 (series 2)", "value": 2.0, "unit": "µg/mL"}, {"measurement": "MIC", "setting": "M. intracellulare; M. intracellulare N-345, Table 3", "value": 25, "unit": "µg/mL"}, {"measurement": "MIC", "setting": "M. intracellulare; M. intracellulare N-345, Table 4 (series 2)", "value": 2.0, "unit": "µg/mL"}, {"measurement": "MIC", "setting": "M. avium; M. avium N-357, Table 3", "value": 3.13, "unit": "µg/mL"}, {"measurement": "MIC", "setting": "M. avium; M. avium N-357, Table 4 (series 2)", "value": 4.0, "unit": "µg/mL"}, {"measurement": "MIC", "setting": "M. avium; M. avium N-444, Table 3", "value": 25, "unit": "µg/mL"}, {"measurement": "MIC", "setting": "M. avium; M. avium N-444, Table 4 (series 2)", "value": 32, "unit": "µg/mL"}, {"measurement": "MIC", "setting": "M. avium; M. avium N-458, Table 3", "value": 3.13, "unit": "µg/mL"}, {"measurement": "MIC", "setting": "M. avium; M. avium N-458, Table 4 (series 2)", "value": 4.0, "unit": "µg/mL"}, {"measurement": "MIC", "setting": "M. avium; M. avium N-472, Table 3", "value": 50, "unit": "µg/mL"}, {"measurement": "MIC", "setting": "M. avium; M. avium N-472, Table 4 (series 2)", "value": 128, "unit": "µg/mL"}, {"measurement": "MIC", "setting": "[2]; M. tuberculosis H37Rv, Table 5", "value": 0.39, "unit": "µg/mL"}, {"measurement": "MIC", "setting": "[2]; M. tuberculosis H37Rv, Table 6 (series 2)", "value": 1.0, "unit": "µg/mL"}, {"measurement": "MIC", "setting": "[2]; M. tuberculosis Kurono, Table 5", "value": 0.39, "unit": "µg/mL"}, {"measurement": "MIC", "setting": "[2]; M. tuberculosis Kurono, Table 6 (series 2)", "value": 0.50, "unit": "µg/mL"}, {"measurement": "MIC", "setting": "[2]; M. tuberculosis No. 40, Table 5", "value": 0.39, "unit": "µg/mL"}, {"measurement": "MIC", "setting": "[2]; M. tuberculosis No. 40, Table 6 (series 2)", "value": 1.0, "unit": "µg/mL"}, {"measurement": "MIC", "setting": "[2]; M. tuberculosis No. 41, Table 5", "value": 0.10, "unit": "µg/mL"}, {"measurement": "MIC", "setting": "[2]; M. tuberculosis No. 41, Table 6 (series 2)", "value": 0.25, "unit": "µg/mL"}, {"measurement": "MIC", "setting": "[2]; M. tuberculosis No. 43, Table 6 (series 2)", "value": 8.0, "unit": "µg/mL"}, {"measurement": "MIC", "setting": "[2]; M. tuberculosis No. 68, Table 5", "value": 0.39, "unit": "µg/mL"}, {"measurement": "MIC", "setting": "[2]; M. tuberculosis No. 68, Table 6 (series 2)", "value": 1.0, "unit": "µg/mL"}]}]}
